Reference: ChEMBL document CHEMBL4411318, “Discovery of a Series of 2'-α-Fluoro,2'-β-bromo-ribonucleosides and Their Phosphoramidate Prodrugs as Potent Pan-Genotypic Inhibitors of Hepatitis C Virus” (J Med Chem, 2019)

Legend:
in vitro [1] = conditions: human, liver microsomes
Description: Intrinsic clearance in human liver microsomes in presence of NADPH regenerating system by LC/MS/MS analysis

HepG2 = assay: Mitochondrial toxicity in human HepG2 cells assessed as lactic acid production at 50 uM followed by medium plus drugs replenishment every 3 to 4 days for 14 days relative to control; format: cell-based; conditions: hepg2, 336 h
[2] = Mitochondrial toxicity in human HepG2 cells assessed as reduction in cell viability after 14 days in presence of glucose supplemented media by ATP depletion assay; format: cell-based
[3] = Cytotoxicity against human CCRF-CEM assessed reduction in cell viability after 4 days by MTT assay; format: cell-based; conditions: CCRF-CEM cells
[4] = Drug metabolism in Beagle dog liver assessed as formation of triphosphate form parent nucleoside at 10 mg/kg, po measured up to 4 hrs by LC-MS/MS analysis; conditions: in vivo
in vitro [5] = conditions: human, liver microsomes; remark: listed apart in the source
Description: Intrinsic clearance in human liver measured from intrinsic clearance in human liver microsomes in presence of NADPH regenerating system by LC/MS/MS analysis

[6] = target: RNA-directed RNA polymerase (Hepacivirus hominis) (UniProt O39930); assay: Inhibition of NS5B polymerase in HCV genotype 1b/5a chimeric replicon infected in human HuH7 replicon cells after 5 days by RT-PCR analysis; format: cell-based
Sequence of RNA-directed RNA polymerase (Hepacivirus hominis) (O39930 1-591): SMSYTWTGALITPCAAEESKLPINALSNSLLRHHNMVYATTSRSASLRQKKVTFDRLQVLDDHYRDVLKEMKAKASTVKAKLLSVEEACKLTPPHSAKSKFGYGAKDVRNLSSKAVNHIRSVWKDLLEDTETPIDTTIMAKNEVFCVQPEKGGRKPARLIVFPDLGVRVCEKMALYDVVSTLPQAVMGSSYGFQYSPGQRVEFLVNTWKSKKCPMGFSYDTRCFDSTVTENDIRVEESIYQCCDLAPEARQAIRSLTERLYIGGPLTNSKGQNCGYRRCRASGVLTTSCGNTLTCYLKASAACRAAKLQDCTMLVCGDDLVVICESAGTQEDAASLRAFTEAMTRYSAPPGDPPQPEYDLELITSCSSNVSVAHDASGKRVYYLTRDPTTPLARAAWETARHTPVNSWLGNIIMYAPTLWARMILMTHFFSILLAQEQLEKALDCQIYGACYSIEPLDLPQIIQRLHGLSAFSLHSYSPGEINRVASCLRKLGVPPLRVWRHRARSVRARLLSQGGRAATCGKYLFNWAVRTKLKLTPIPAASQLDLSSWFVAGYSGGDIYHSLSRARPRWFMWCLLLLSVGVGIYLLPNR

[7] = target: RNA-directed RNA polymerase (Hepacivirus hominis) (UniProt O39930); assay: Inhibition of NS5B polymerase in HCV genotype 1b/4a chimeric replicon infected in human HuH7 replicon cells after 5 days by RT-PCR analysis; format: cell-based
[8] = target: RNA-directed RNA polymerase (Hepacivirus hominis) (UniProt O39930); conditions: Hepatitis C virus subtype 1b
Description: Inhibition of NS5B polymerase in wild type HCV genotype 1b infected in human Huh7 replicon cells after 5 days by RT-PCR assay

[9] = Half life in human intestinal microsomes by LC/MS/MS analysis; format: ADME, Intestine, Microsome
[10] = Cardiotoxicity against human embryonic stem cell-induced ventricular cardiomyocytes administered on day 7 and measured on day 10 after 30 mins incubation by CellTiter Glo assay; format: toxicity, cell-based, Cardiac muscle cell
[11] = Stability in simulated intestinal fluid after 24 hrs by LC/MS/MS analysis; format: ADME; conditions: simulated gi fluid
[12] = test system: cytochrome c oxidase subunit 2 DNA level; assay: Mitochondrial toxicity in human HepG2 cells assessed as inhibition of cytochrome c oxidase subunit 2 DNA level followed by medium plus drugs replenishment every 3 to 4 days for 14 days relative to control; format: cell-based
in vitro [13] = conditions: human, liver microsomes; remark: listed apart in the source
Description: Stability in human liver microsomes assessed as compound remaining in absence of NADPH regenerating system after 60 mins by LC/MS/MS analysis

[14] = test system: nuclear ribosomal-DNA level; assay: Mitochondrial toxicity in human HepG2 cells assessed as inhibition of nuclear ribosomal-DNA level at 50 uM followed by medium plus drugs replenishment every 3 to 4 days for 14 days relative to control; format: cell-based
[15] = Cytotoxicity against human HuH7 cells assessed reduction in cell viability after 3 to 5 days by MTT assay; format: cell-based, Huh-7
[16] = test system: nuclear ribosomal-DNA level; assay: in vitro; conditions: human, HepG2 cells
[17] = Drug uptake in Beagle dog liver at 10 mg/kg, po measured up to 4 hrs by LC-MS/MS analysis; conditions: in vivo, BLD = below limit of detection
[18] = Mitochondrial toxicity in human HepG2 cells assessed as reduction in cell viability after 3 days in presence of glucose supplemented media by ATP depletion assay; format: cell-based
[19] = target: RNA-directed RNA polymerase (Hepacivirus hominis) (UniProt O39930); assay: Inhibition of NS5B polymerase in HCV genotype 2a infected in human HuH7 replicon cells after 5 days by RT-PCR analysis; format: cell-based; conditions: Hepatitis C virus subtype 2a
Bone marrow cell [20] = assay: Cytotoxicity against human bone marrow cells assessed as inhibition of colony-forming unit-granulocyte after 14 days by FACS analysis; format: cell-based; conditions: 336 h
[21] = target: RNA-directed RNA polymerase (Hepacivirus hominis) (UniProt O39930); conditions: genotype 1b/3a
Description: Inhibition of NS5B polymerase in HCV genotype 1b/3a chimeric replicon infected in human HuH7 replicon cells after 5 days by RT-PCR analysis

[22] = test system: cytochrome c oxidase subunit 2 DNA level; assay: Mitochondrial toxicity in human HepG2 cells assessed as inhibition of cytochrome c oxidase subunit 2 DNA level at 50 uM followed by medium plus drugs replenishment every 3 to 4 days for 14 days relative to control; format: cell-based
in vitro [23] = conditions: human, liver microsomes; remark: listed apart in the source
Description: Half life in human liver microsomes in presence of NADPH regenerating system by LC/MS/MS analysis

[24] = Cytotoxicity against human PBMC assessed reduction in cell viability after 5 days by MTT assay; format: cell-based; conditions: PBMC
[25] = Mitochondrial toxicity in human HepG2 cells assessed as reduction in cell viability after 3 days in presence of galactose supplemented media by ATP depletion assay; format: cell-based
[26] = Stability in human plasma assessed as compound remaining at 2 uM after 120 mins by LC/MS/MS analysis; format: ADME, cell-free; conditions: read-out: Stability
[27] = Drug metabolism in human HuH7 cells assessed as Tmax for NTP formation at 10 uM after 2 to 48 hrs by LC-MS/MS analysis; format: ADME, cell-based; conditions: huh-7, 10 µM
Bone marrow cell [28] = assay: Cytotoxicity against human bone marrow cells assessed as inhibition of burst forming unit-erythroid after 14 days by FACS analysis; format: cell-based; conditions: 336 h
Huh-7 = assay: Cytotoxicity against human HuH7 cells assessed reduction in cell viability after 3 to 5 days by cellular ribosomal RNA amplification assay
Vero = format: cell-based; conditions: chlorocebus sabaeus, 72 h
[29] = target: DNA-directed RNA polymerase, mitochondrial (Homo sapiens, UniProt O00411); assay: Substrate activity at human POLRMT assessed as 5-radiolabled RNA/DNA incorporation levels at 100 uM after 2 hrs by PAGE analysis; format: ADME
Sequence of DNA-directed RNA polymerase, mitochondrial (O00411 whole entry): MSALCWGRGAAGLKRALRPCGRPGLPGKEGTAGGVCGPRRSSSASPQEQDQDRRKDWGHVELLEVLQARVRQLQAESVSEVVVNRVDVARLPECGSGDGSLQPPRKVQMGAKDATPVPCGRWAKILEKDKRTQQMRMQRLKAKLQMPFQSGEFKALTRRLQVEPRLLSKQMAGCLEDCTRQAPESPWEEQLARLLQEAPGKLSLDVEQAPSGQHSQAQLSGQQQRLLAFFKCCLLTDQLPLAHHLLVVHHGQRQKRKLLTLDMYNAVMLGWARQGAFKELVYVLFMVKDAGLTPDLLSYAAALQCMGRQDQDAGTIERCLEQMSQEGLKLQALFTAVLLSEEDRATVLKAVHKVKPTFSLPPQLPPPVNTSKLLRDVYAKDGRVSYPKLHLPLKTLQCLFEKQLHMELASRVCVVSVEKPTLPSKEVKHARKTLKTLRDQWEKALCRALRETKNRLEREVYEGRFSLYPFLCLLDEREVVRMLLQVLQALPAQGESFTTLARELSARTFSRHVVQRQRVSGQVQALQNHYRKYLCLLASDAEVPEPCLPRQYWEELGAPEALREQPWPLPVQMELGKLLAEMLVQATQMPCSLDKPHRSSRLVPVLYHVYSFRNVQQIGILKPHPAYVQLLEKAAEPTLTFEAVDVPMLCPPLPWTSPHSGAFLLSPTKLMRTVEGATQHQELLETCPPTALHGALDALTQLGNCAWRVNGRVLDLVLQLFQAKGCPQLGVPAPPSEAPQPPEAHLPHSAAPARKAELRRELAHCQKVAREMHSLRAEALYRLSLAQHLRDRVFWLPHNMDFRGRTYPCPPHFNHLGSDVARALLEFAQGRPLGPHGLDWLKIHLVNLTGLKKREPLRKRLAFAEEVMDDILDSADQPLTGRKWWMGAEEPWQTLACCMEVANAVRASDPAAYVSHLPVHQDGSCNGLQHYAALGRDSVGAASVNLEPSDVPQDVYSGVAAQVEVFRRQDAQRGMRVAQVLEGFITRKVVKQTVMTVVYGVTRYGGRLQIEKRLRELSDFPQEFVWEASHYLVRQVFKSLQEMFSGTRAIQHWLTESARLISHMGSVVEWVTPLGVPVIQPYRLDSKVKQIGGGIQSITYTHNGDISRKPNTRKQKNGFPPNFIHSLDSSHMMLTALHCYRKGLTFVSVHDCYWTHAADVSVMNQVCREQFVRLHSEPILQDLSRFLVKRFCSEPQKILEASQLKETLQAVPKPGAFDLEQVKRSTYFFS

[30] = Inhibition of human DNA polymerase gamma using 5-end radiolabeled 24nt to 48nt DNA as primer template after 120 mins in presence of dCTP/dGTP/dTTP/dATP by PAGE analysis
[31] = target: T1, DNA polymerase alpha catalytic subunit (Homo sapiens, UniProt P09884); assay: Inhibition of human DNA polymerase alpha using 5-end radiolabeled 24nt to 48nt DNA as primer template after 5 mins in presence of dCTP/dGTP/dTTP/dATP by PAGE analysis
T1 sequence (P09884 whole entry): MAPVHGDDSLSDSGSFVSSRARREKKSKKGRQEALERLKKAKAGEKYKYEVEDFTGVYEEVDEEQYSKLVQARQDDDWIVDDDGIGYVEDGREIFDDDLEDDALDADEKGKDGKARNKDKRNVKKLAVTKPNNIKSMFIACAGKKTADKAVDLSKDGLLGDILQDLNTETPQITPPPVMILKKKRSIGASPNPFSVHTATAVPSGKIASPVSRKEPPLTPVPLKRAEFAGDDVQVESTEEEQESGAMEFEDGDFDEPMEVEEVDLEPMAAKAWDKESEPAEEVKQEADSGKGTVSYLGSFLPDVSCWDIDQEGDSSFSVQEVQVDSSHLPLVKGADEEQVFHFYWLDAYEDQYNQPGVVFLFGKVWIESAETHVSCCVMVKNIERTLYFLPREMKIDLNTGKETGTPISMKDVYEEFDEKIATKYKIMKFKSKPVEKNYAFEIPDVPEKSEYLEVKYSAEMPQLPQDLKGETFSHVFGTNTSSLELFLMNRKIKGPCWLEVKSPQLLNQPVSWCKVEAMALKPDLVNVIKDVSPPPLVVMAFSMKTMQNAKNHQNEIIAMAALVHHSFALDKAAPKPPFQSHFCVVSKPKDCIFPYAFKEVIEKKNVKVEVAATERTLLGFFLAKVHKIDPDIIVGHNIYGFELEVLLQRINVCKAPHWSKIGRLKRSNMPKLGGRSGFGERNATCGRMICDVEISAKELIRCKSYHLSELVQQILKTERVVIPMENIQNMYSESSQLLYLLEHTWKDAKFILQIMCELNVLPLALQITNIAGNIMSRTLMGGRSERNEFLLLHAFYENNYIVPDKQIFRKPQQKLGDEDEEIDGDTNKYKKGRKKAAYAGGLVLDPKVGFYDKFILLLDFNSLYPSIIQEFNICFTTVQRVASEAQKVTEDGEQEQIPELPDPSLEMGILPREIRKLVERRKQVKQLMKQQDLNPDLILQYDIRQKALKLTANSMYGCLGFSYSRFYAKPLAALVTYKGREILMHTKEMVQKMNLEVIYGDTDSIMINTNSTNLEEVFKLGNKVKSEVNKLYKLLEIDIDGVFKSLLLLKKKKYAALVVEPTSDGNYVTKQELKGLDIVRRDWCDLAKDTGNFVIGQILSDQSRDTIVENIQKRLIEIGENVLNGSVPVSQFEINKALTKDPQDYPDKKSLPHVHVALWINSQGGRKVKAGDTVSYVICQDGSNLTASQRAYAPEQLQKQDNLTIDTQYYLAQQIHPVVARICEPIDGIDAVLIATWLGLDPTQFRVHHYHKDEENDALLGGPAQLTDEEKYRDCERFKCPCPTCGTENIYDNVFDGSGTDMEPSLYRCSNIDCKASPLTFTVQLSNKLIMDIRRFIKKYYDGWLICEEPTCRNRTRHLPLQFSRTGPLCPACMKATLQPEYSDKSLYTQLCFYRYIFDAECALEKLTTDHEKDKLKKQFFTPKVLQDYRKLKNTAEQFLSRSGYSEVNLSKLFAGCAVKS

DNA polymerase beta = DNA polymerase beta (Homo sapiens, UniProt P06746); assay: Inhibition of human DNA polymerase beta using 5-end radiolabeled 24nt to 48nt DNA as primer template after 5 mins in presence of dCTP/dGTP/dTTP/dATP by PAGE analysis

**Q.** What does the source list for `CC(C)OC(=O)[C@H](C)N[P@@](=O)(OC[C@H]1O[C@@H](n2ccc(=O)[nH]c2=O)C(F)(Br)C1O)Oc1ccccc1` (single isomer, unassigned)?
**A.** microsomal CLint (in vitro [1]): 75.3 µL/min/mg; Activity (HepG2): 100%; IC50 at 14 days [2]: > 100 µM; CC50 at 96 h [3]: > 100 µM; Drug metabolism [4]: Metabolite_Notdetected; CLint scaled (in vitro [5]): 67.8 mL/min/kg; EC90 [6]: 0.8 µM; EC90 [7]: 0.87 µM; EC90 [8]: 0.53 to 2.4 µM; half-life [9]: 2.2 h; IC50 at 3 days [10]: > 100 µM; Stability [11]: Stable; IC50 at 14 days [12]: > 50 µM; remaining at 1 h (in vitro [13]): 26.6%; inhibition at 336 h, 50 µM [14]: < 1%; CC50 [15]: > 10 µM; IC50 at 14 days [16]: > 50 µM; Drug uptake [17]: Bld; IC50 at 3 days [18]: > 100 µM; EC90 [19]: 0.83 µM; IC50 (Bone marrow cell [20]): > 100 µM; EC90 [21]: 1.6 µM; inhibition at 336 h, 50 µM [22]: 31%; half-life (in vitro [23]): 0.307 h; CC50 at 120 h [24]: > 100 µM; IC50 at 3 days [25]: > 100 µM; remaining at 2 h, 2 µM [26]: 72%; Tmax [27]: 24 h; IC50 (Bone marrow cell [28]): > 100 µM

**Q.** With `CC(C)OC(=O)[C@H](C)NP(=O)(OC[C@H]1O[C@@H](n2ccc(N)nc2=O)C(F)(Br)C1O)Oc1ccccc1` (single isomer, unassigned) as the compound, how does the CC50 at 96 h [3] read?
**A.** > 100 µM

**Q.** What about the CC50 (Huh-7) of the same compound?
**A.** > 10 µM

**Q.** What about the EC90 [8] of the same compound?
**A.** 1.8 µM

**Q.** What about the CC50 (Vero) of the same compound?
**A.** > 100 µM

**Q.** What does the source list for `Nc1ncnc2c1ncn2[C@@H]1O[C@H](CO)C(O)C1(F)Br` (single isomer, unassigned)?
**A.** CC50 at 96 h [3]: > 100 µM; CC50 (Huh-7): > 10 µM; EC90 [8]: > 10 µM; CC50 (Vero): > 100 µM

**Q.** With `O=C(O)Cc1ccccc1Nc1c(Cl)cccc1Cl` [DICLOFENAC] as the compound, how does the CLint scaled (in vitro [5]) read?
**A.** 116 mL/min/kg

**Q.** Which results are given for `C[C@@]1(F)[C@H](O)[C@@H](COP(=O)(O)OP(=O)(O)OP(=O)(O)O)O[C@H]1n1ccc(=O)[nH]c1=O` [GS-461203]?
**A.** Activity [29]: 3.1%; IC50 [30]: > 100 µM; IC50 [31]: > 100 µM; IC50 (DNA polymerase beta): > 100 µM

**Q.** Which Activity [29] does the source give for `O=c1ccn([C@@H]2O[C@H](COP(=O)(O)OP(=O)(O)OP(=O)(O)O)[C@@H](O)[C@H]2O)c(=O)[nH]1` [URIDINE TRIPHOSPHATE] here?
**A.** 100%
